# Measured values as given in patent publication US20090305894A1, “use of sulfonanilides as herbicide” (priority 2005, published 2009).
# How the values were obtained:
# Type in all cases: in vivo
# [1] = test system: Scirpus juncoides Roxburgh (resistant to sulfonylurea type herbicide); assay: Herbicidal efficacy test to weeds resistant to sulfonylurea type herbicide (Test Example 1, applied on water surface, Table 8); settings: 60 g ai/ha, applied on water surface at beginning of sprouting, rated after 3 weeks; 100% = complete withering, 0% = no effect
# Description: (§1) Preparation of formulation of active compound
# (§2) Carrier: DMF 5 parts by weight
# (§3) Emulsifier: benzyloxypolyglycol ether 1 part by weight
# (§4) The formulations of active compounds were obtained as emulsions by mixing 1 part by weight of the active compound with the carrier and emulsifier in the described amounts. The formulations were diluted with water so as to adjust a prescribed dosage.
# (§5) In a greenhouse respective seeds of Scirpus juncoides Roxburgh (from Hokkaido, Japan) and Lindernia procumbens Philcox (from Saitama, Japan), which are confirmed to have resistance to a sulfonylurea type herbicide, were inoculated in pots filled with 500 cm^2 of paddy field soil and water was poured to the pot in about 2 to 3 cm depth. At the beginning of sprouting of the weeds, prescribed diluted solutions of the formulations of the respective active compounds obtained by the above-mentioned manner were applied on the water surface. After the treatment water depth of 3 cm was kept. The herbicidal effect was investigated after 3 weeks of the treatment. The herbicidal effect was rated as 100% in the case of complete withering and 0% in the case of no herbicidal effect. When the herbicidal effect was 80% or higher, the practical effectiveness as herbicides is recognized. As the representative examples, the test results of the compound Nos. 1, 3, 4, 5, 6, 7, 13, 70, 127, 128 and 130 are shown in Table 8.
# [2] = test system: Lindernia procumbens Philcox (resistant to sulfonylurea type herbicide); assay: as above; settings: 60 g ai/ha, applied on water surface at beginning of sprouting, rated after 3 weeks; 100% = complete withering, 0% = no effect
# Description: as §1, §2, §3, §4, §5
# [3] = test system: paddy rice seedlings (cultivar: Nihonbare); assay: Herbicide damage on transplanted paddy rice (Test Example 2, Table 9); settings: 60 g ai/ha, applied to water surface 5 days after transplantation, rated after 3 weeks; 100% = complete withering, 0% = no damage
# Description: as §4
# In a greenhouse each three paddy rice seedlings (cultivar: Nihonbare) were transplanted (transplantation depth 2 cm) in each pot filled with 500 cm^2 of paddy field soil and covered with water in about 2 to 3 cm depth. After 5 days from the transplantation, prescribed diluted solutions of the formulations of the respective active compounds obtained in the same manner as in Test Example 1 were applied to the water surface of each pot. After the treatment, the water depth of 3 cm was kept. The herbicide damage was investigated after 3 weeks of the treatment. The herbicide damage was rated as 100% in the case of complete withering and 0% in the case of no herbicide damage. When the herbicide damage was 20% or lower, the safety as a paddy rice herbicide was evaluated to be excellent. As the representative examples, the test results of the compound Nos. 3, 4, 5, 6, 7, 70, 115, 127 and 128, and comparative compound C-2 are shown in Table 9.
# Brachiaria plantaginea [4] = assay: Irrigated directly seeded paddy rice, herbicidal effect, spraying to soil before sprouting (Test Example 3, Table 10); settings: 20 g ai/ha, rated after 3 weeks
# Description: as §4
# (§6) In a greenhouse seeds of rice (cultivar: Balilla) and weeds (Brachiaria plantaginea, Cyperus esculntus, Cyperus iria L., Echinochloa colonum, Leptochloa chinensis, Ipomoea purpurea, and Sesbania exaltata) were inoculated on the surface layers of pots filled with 100 cm^2 of paddy field soil and covered with soil. Water was poured to produce wet state (water level 0 cm). The prescribed diluted solutions of the formulations of the respective active compounds obtained in the same manner as in Test Example 1 were sprayed on the soil of some pots on completion of the seeding and the solutions of the agents were sprayed over the plants from the above in the rest of the pots after the respective sample plants were grown in first- to third-1 eaf stage in the greenhouse. After one day from the treatment with the compound, water was poured in 3 cm depth. The herbicidal effects and herbicide damage on rice of the respective compounds were investigated after 3 weeks from the treatment. The herbicidal effect and herbicide damage on the rice were rated as 100% in the case of complete withering and 0% in the case of no herbicidal effect or no harm. When herbicidal effect was 80% or higher, it was determined to be practically applicable as herbicides. When the herbicide damage was 20% or lower, the safety of the herbicide was evaluated to be excellent.
# Cyperus esculntus [5] = assay: as above; settings: 20 g ai/ha, rated after 3 weeks
# Description: as §4, §6
# Ipomoea purpurea [6] = assay: as above; settings: 20 g ai/ha, rated after 3 weeks
# Description: as §4, §6
# Cyperus iria L. [7] = assay: as above; settings: 20 g ai/ha, rated after 3 weeks
# Description: as §4, §6
# Leptochloa chinensis [8] = assay: as above; settings: 20 g ai/ha, rated after 3 weeks
# Description: as §4, §6
# Sesbania exaltata [9] = assay: as above; settings: 20 g ai/ha, rated after 3 weeks
# Description: as §4, §6
# Echinochloa colonum [10] = assay: as above; settings: 20 g ai/ha, rated after 3 weeks
# Description: as §4, §6
# rice (cultivar: Balilla) [11] = assay: Irrigated directly seeded paddy rice, herbicide damage, spraying to stems and leaves after sprouting (Test Example 3, Table 11); settings: 20 g ai/ha, rated after 3 weeks
# Description: as §4, §6
# rice (cultivar: Balilla) [12] = assay: Irrigated directly seeded paddy rice, herbicide damage, spraying to soil before sprouting (Test Example 3, Table 10); settings: 20 g ai/ha, rated after 3 weeks
# Description: as §4, §6
# Brachiaria plantaginea [13] = assay: Irrigated directly seeded paddy rice, herbicidal effect, spraying to stems and leaves after sprouting (Test Example 3, Table 11); settings: 20 g ai/ha, rated after 3 weeks
# Description: as §4, §6
# Cyperus esculntus [14] = assay: as above; settings: 20 g ai/ha, rated after 3 weeks
# Description: as §4, §6
# Ipomoea purpurea [15] = assay: as above; settings: 20 g ai/ha, rated after 3 weeks
# Description: as §4, §6
# Cyperus iria L. [16] = assay: as above; settings: 20 g ai/ha, rated after 3 weeks
# Description: as §4, §6
# Sesbania exaltata [17] = assay: as above; settings: 20 g ai/ha, rated after 3 weeks
# Description: as §4, §6
# Echinochloa colonum [18] = assay: as above; settings: 20 g ai/ha, rated after 3 weeks
# Description: as §4, §6
# Leptochloa chinensis [19] = assay: as above; settings: 20 g ai/ha, rated after 3 weeks
# Description: as §4, §6
# Echinochloa crus-gali = assay: Herbicidal effect on weeds in dry field, spraying treatment on soil before sprouting (Test Example 4, Table 12); settings: 80 g ai/ha, spraying to soil before sprouting, rated after 3 weeks
# Description: as §4, §6
# (§7) In a greenhouse one seed each of crops in dry field (Triticum aestivum and Glycine max) and weeds (Echinochloa crus-gali and Setaria vividis) were inoculated in the surface layer in one pot filled with 16 cm^2 of dry field soil and covered with soil. The prescribed diluted solutions of the formulations of the respective active compounds obtained in the same manner as in Test Example 1 were sprayed to the soil upon the inoculation. The herbicidal effect and herbicide damage on crops of the respective compounds were investigated after 3 weeks from the treatment. Evaluations of the herbicidal effect and herbicide damage were carried out in the same manner as in Test Example 3. As the representative example, the test results of compound No. 1 and 24, and the comparative compound C-1 are shown in Table 12.
# Setaria vividis = assay: as above; settings: 80 g ai/ha, spraying to soil before sprouting, rated after 3 weeks
# Description: as §4, §6, §7
# Glycine max = assay: Herbicide damage to crops in dry field, spraying treatment on soil before sprouting (Test Example 4, Table 12); settings: 80 g ai/ha, rated after 3 weeks
# Description: as §4, §6, §7
# Triticum aestivum = assay: as above; settings: 80 g ai/ha, rated after 3 weeks
# Description: as §4, §6, §7
smiles,measurement,setting,value
"COC(=O)c1ccccc1CS(=O)(=O)NC(=O)Nc1nc(OC)cc(OC)n1 [C-4, Bensulfuron-methyl, reference compound]",Herbicidal effect to sulfonylurea resistant weeds: Scirpus juncoides Roxburgh (from Hokkaido),[1],10%
same,Herbicidal effect to sulfonylurea resistant weeds: Lindernia procumbens Philcox (from Saitama pref.),[2],10%
COc1cc(OC)nc(C(O)c2ccc(Cl)c(OC)c2NS(=O)(=O)C(F)F)n1 (stereo not shown) [compound 128],Herbicidal effect to sulfonylurea resistant weeds: Scirpus juncoides Roxburgh (from Hokkaido),[1],90%
same,Herbicidal effect to sulfonylurea resistant weeds: Lindernia procumbens Philcox (from Saitama pref.),[2],100%
same,Herbicide damage on transplanted paddy rice,[3],0%
COc1nc(OC)nc(C(=O)c2cccc(Cl)c2N(C)S(=O)(=O)C(F)F)n1 [compound 2],Herbicidal effect Brachiaria plantaginea,Brachiaria plantaginea [4],80%
same,Herbicidal effect Cyperus esculntus,Cyperus esculntus [5],90%
same,Herbicidal effect Ipomoea purpurea,Ipomoea purpurea [6],80%
same,Herbicidal effect Cyperusiria L.,Cyperus iria L. [7],100%
same,Herbicidal effect Leptochloa chinensis,Leptochloa chinensis [8],90%
same,Herbicidal effect Sesbania exaltata,Sesbania exaltata [9],80%
same,Herbicidal effect Echinochloa colonum,Echinochloa colonum [10],80%
same,Herbicide damage on Rice,rice (cultivar: Balilla) [11],10%
same,Herbicide damage on Rice,rice (cultivar: Balilla) [12],30%
same,Herbicidal effect Brachiaria plantaginea,Brachiaria plantaginea [13],100%
same,Herbicidal effect Cyperus esculntus,Cyperus esculntus [14],100%
same,Herbicidal effect Ipomoea purpurea,Ipomoea purpurea [15],100%
same,Herbicidal effect Cyperusiria L.,Cyperus iria L. [16],100%
same,Herbicidal effect Sesbania exaltata,Sesbania exaltata [17],100%
same,Herbicidal effect Echinochloa colonum,Echinochloa colonum [18],100%
COc1cc(OC)nc(C(O)c2ccc(F)cc2NS(=O)(=O)C(F)F)n1 (stereo not shown) [compound 5],Herbicidal effect to sulfonylurea resistant weeds: Scirpus juncoides Roxburgh (from Hokkaido),[1],100%
same,Herbicidal effect to sulfonylurea resistant weeds: Lindernia procumbens Philcox (from Saitama pref.),[2],100%
same,Herbicide damage on transplanted paddy rice,[3],0%
COc1nc(OC)nc(C(O)c2cccc(F)c2N(C)S(=O)(=O)C(F)F)n1 (stereo not shown) [compound 9],Herbicidal effect Brachiaria plantaginea,Brachiaria plantaginea [4],70%
same,Herbicidal effect Cyperus esculntus,Cyperus esculntus [5],100%
same,Herbicidal effect Ipomoea purpurea,Ipomoea purpurea [6],70%
same,Herbicidal effect Cyperusiria L.,Cyperus iria L. [7],100%
same,Herbicidal effect Leptochloa chinensis,Leptochloa chinensis [8],80%
same,Herbicidal effect Sesbania exaltata,Sesbania exaltata [9],100%
same,Herbicidal effect Echinochloa colonum,Echinochloa colonum [10],100%
same,Herbicide damage on Rice,rice (cultivar: Balilla) [11],20%
same,Herbicide damage on Rice,rice (cultivar: Balilla) [12],20%
same,Herbicidal effect Brachiaria plantaginea,Brachiaria plantaginea [13],100%
same,Herbicidal effect Cyperus esculntus,Cyperus esculntus [14],100%
same,Herbicidal effect Ipomoea purpurea,Ipomoea purpurea [15],100%
same,Herbicidal effect Cyperusiria L.,Cyperus iria L. [16],100%
same,Herbicidal effect Leptochloa chinensis,Leptochloa chinensis [19],60%
same,Herbicidal effect Sesbania exaltata,Sesbania exaltata [17],100%
same,Herbicidal effect Echinochloa colonum,Echinochloa colonum [18],100%
COc1cc(OC)nc(C(O)c2ccc(F)c(C)c2NS(=O)(=O)C(F)F)n1 (stereo not shown) [compound 70],Herbicidal effect to sulfonylurea resistant weeds: Scirpus juncoides Roxburgh (from Hokkaido),[1],100%
same,Herbicidal effect to sulfonylurea resistant weeds: Lindernia procumbens Philcox (from Saitama pref.),[2],90%
same,Herbicide damage on transplanted paddy rice,[3],10%
COCN(c1c(F)cccc1C(=O)c1nc(OC)nc(OC)n1)S(=O)(=O)C(F)F [compound 24],Herbicidal effect Echinochloa crus-gali,Echinochloa crus-gali,80%
same,Herbicidal effect Setaria vividis,Setaria vividis,90%
same,Herbicide damage Glycine max,Glycine max,0%
same,Herbicide damage Triticum aestivum,Triticum aestivum,0%
COc1cc(OC)nc(C(O)c2c(F)cccc2NS(=O)(=O)C(F)F)n1 (stereo not shown) [compound 6],Herbicidal effect to sulfonylurea resistant weeds: Scirpus juncoides Roxburgh (from Hokkaido),[1],100%
same,Herbicidal effect to sulfonylurea resistant weeds: Lindernia procumbens Philcox (from Saitama pref.),[2],100%
same,Herbicide damage on transplanted paddy rice,[3],10%
